# Assay results from patent US10266526B2, “Substituted 1,2,3-triazoles as SMYD inhibitors for treating cancer” (EPIZYME, INC., priority 2014, dated 2019).
# Target: SMYD2 (Homo sapiens (Human), UniProt Q9NRG4)
# Experiment: SMYD2 biochemical assay (SMYD2 enzyme assay on peptide substrate, 3H-SAM Flashplate)
# Conditions: read-out: SMYD2 Biochem IC50; IC50 values are an average of n = 1 to n = 50
# Source text: S-adenosylmethionine (SAM), S-adenosylhomocysteine (SAH), bicine, Tween20, dimethylsulfoxide (DMSO), bovine skin gelatin (BSG), and Tris(2-carboxyethyl)phosphine hydrochloride (TCEP) were purchased from Sigma-Aldrich at the highest level of purity possible. ^3H-SAM was purchase from American Radiolabeled Chemicals with a specific activity of 80 Ci/mmol. 384-well streptavidin Flashplates were purchased from PerkinElmer.
# The sequence was [sequence](K-Biot)-amide.
# Production of Recombinant SMYD2 Enzymes for Biochemical Enzyme Activity Assays
# Full length SMYD2 (NP_064582.2) was cloned into a pFastbac-Htb-lic vector with an N-terminal His6 tag and FLAG tag, preceded by a TEV protease cleavage site. The protein was expressed in Sf9 insect cells. Cells were resuspended in lysis buffer (25 mM HEPES-NaOH, pH 7.5, 200 mM NaCl, 5% glycerol, and 5 mM (3-ME) and lysed by sonication. The protein was purified by Ni-NTA (Qiagen), followed by TEV cleavage to remove the His6 tag, subtractive Ni-NTA (Qiagen), and gel filtration chromatography using an S200 column (GE Healthcare). Purified protein was stored in 20 mM Tris-HCl, pH 8.0, 100 mM NaCl, and 1 mM TCEP.
# General Procedure for SMYD2 Enzyme Assays on Peptide Substrates
# The assays were all performed in a buffer consisting of 20 mM Bicine (pH=7.6), 1 mM TCEP, 0.005% Bovine Skin Gelatin, and 0.002% Tween20, prepared on the day of use. […] DMSO (1 ul) was added to Columns 11, 12, 23, 24, rows A-H for the maximum signal control and 1 ul of SAH, a known product and inhibitor of SMYD2, was added to columns 11, 12, 23, 24, rows I-P for the minimum signal control. A cocktail (40 ul) containing the SMYD2 enzyme was added by Multidrop Combi (Thermo-Fisher). The compounds were allowed to incubate with SMYD2 for 30 min at room temperature, then a cocktail (10 ul) containing ^3H-SAM and peptide was added to initiate the reaction (final volume=51 ul). […] The assays were stopped by the addition of non-radioactive SAM (10 ul) to a final concentration of 600 uM, which dilutes the ^3H-SAM to a level where its incorporation into the peptide substrate is no longer detectable. 50 ul of the reaction in the 384-well polypropylene plate was then transferred to a 384-well Flashplate and the biotinylated peptides were allowed to bind to the streptavidin surface for at least 1 hour before being washed three times with 0.1% Tween20 in a Biotek ELx405 plate washer. The plates were then read in a PerkinElmer TopCount plate reader to measure the quantity of ^3H-labeled peptide bound to the Flashplate surface, measured as disintegrations per minute (dpm) or alternatively, referred to as counts per minute (cpm).
# Where dpm=disintegrations per minute, cmpd=signal in assay well, and min and max are the respective minimum and maximum signal controls.
# Where top and bottom are the normally allowed to float, but may be fixed at 100 or 0 respectively in a 3-parameter fit. The Hill Coefficient normally allowed to float but may also be fixed at 1 in a 3-parameter fit. I is the compound concentration.
# SMYD2, sequence (Q9NRG4 whole entry): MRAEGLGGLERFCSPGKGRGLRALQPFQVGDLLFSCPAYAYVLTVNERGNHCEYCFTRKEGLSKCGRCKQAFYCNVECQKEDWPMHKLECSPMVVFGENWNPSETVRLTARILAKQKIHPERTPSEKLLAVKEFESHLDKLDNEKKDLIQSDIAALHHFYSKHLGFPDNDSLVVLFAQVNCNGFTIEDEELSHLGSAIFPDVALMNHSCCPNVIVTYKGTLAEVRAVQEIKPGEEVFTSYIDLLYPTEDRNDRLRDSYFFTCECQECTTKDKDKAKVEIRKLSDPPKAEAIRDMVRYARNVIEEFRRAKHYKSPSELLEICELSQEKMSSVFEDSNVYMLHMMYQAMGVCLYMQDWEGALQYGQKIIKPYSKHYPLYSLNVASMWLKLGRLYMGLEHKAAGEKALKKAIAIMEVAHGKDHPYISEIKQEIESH
row,Structure (SMILES),IC50
1,"CC(C)(C)c1ccc(Cn2cc(CN3CC(NC(=O)c4cn(C5CC5)nn4)C3)cn2)cc1 [compound 947, N-(1-((1-(4-(tert-butyl)benzyl)-1H-pyrazol-4-yl)methyl)azetidin-3-yl)-1-cyclopropyl-1H-1,2,3-triazole-4-carboxamide]",56 nM
2,"O=C(NC1CN(Cc2cnn(CC3CCCCC3)c2)C1)c1cn(C2CC2)nn1 [compound 948, N-(1-((1-(cyclohexylmethyl)-1H-pyrazol-4-yl)methyl)azetidin-3-yl)-1-cyclopropyl-1H-1,2,3-triazole-4-carboxamide]",360 nM
3,"O=C(NC1CN(Cc2cnn(CC3CCOCC3)c2)C1)c1cn(C2CC2)nn1 [compound 949, 1-cyclopropyl-N-(1-((1-((tetrahydro-2H-pyran-4-yl)methyl)-1H-pyrazol-4-yl)methyl)azetidin-3-yl)-1H-1,2,3-triazole-4-carboxamide]",2400 nM
4,"O=C(NC1CN(Cc2cnn(CC3CCOC3)c2)C1)c1cn(C2CC2)nn1 (stereo not shown) [compound 950, 1-cyclopropyl-N-(1-((1-((tetrahydrofuran-3-yl)methyl)-1H-pyrazol-4-yl)methyl)azetidin-3-yl)-1H-1,2,3-triazole-4-carboxamide]",2000 nM
5,"O=C(NC1CN(Cc2cnn(Cc3ccc(F)cc3)c2)C1)c1cn(C2CC2)nn1 [compound 951, 1-cyclopropyl-N-(1-((1-(4-fluorobenzyl)-1H-pyrazol-4-yl)methyl)azetidin-3-yl)-1H-1,2,3-triazole-4-carboxamide]",22 nM
6,"CC(c1ccc2c(cnn2C)c1)N1CC(NC(=O)c2cn(C3CC3)nn2)C1 (stereo not shown) [compound 952, 1-cyclopropyl-N-(1-(1-(1-methyl-1H-indazol-5-yl)ethyl)azetidin-3-yl)-1H-1,2,3-triazole-4-carboxamide]",1630 nM
7,"O=C(NC1CN(Cc2ccc(Cn3cccn3)cc2)C1)c1cn(C2CC2)nn1 [compound 953, N-(1-(4-((1H-pyrazol-1-yl)methyl)benzyl)azetidin-3-yl)-1-cyclopropyl-1H-1,2,3-triazole-4-carboxamide]",5600 nM
8,"O=C(NC1CN(Cc2ccc(Cn3cccn3)cc2)C1)c1cc(C2CC2)cnn1 [compound 954, N-(1-(4-((1H-pyrazol-1-yl)methyl)benzyl)azetidin-3-yl)-5-cyclopropylpyridazine-3-carboxamide]",2400 nM
9,"O=C(NC1CN(Cc2cnn(Cc3ccccc3)c2)C1)c1cc(C2CC2)on1 [compound 955, N-(1-((1-benzyl-1H-pyrazol-4-yl)methyl)azetidin-3-yl)-5-cyclopropylisoxazole-3-carboxamide]",73 nM
10,"CC(c1cccc(OCC(C)(C)O)c1Cl)N1CC(NC(=O)c2cn(C3CC3)nn2)C1 (stereo not shown) [compound 956, N-(1-(1-(2-chloro-3-(2-hydroxy-2-methylpropoxy)phenyl)ethyl)azetidin-3-yl)-1-cyclopropyl-1H-1,2,3-triazole-4-carboxamide]",2600 nM
11,"COc1ccc(COc2ccc(C(C)N3CC(NC(=O)c4cn(C5CC5)nn4)C3)cc2)cc1 (stereo not shown) [compound 957, 1-cyclopropyl-N-(1-(1-(4-((4-methoxybenzyl)oxy)phenyl)ethyl)azetidin-3-yl)-1H-1,2,3-triazole-4-carboxamide]",160 nM
12,"COc1ccc(C(C)N2CC(NC(=O)c3cc(C4CC4)cnn3)C2)cc1 (stereo not shown) [compound 958, 5-cyclopropyl-N-(1-(1-(4-methoxyphenyl)ethyl)azetidin-3-yl)pyridazine-3-carboxamide]",600 nM
13,"CC(c1ccc(OCCN(C)C)cc1)N1CC(NC(=O)c2cn(C3CC3)nn2)C1 (stereo not shown) [compound 959, 1-cyclopropyl-N-(1-(1-(4-(2-(dimethylamino)ethoxy)phenyl)ethyl)azetidin-3-yl)-1H-1,2,3-triazole-4-carboxamide]",2000 nM
14,"CC(c1ccc(OCCc2ccccc2)cc1)N1CC(NC(=O)c2cn(C3CC3)nn2)C1 (stereo not shown) [compound 960, 1-cyclopropyl-N-(1-(1-(4-phenethoxyphenyl)ethyl)azetidin-3-yl)-1H-1,2,3-triazole-4-carboxamide]",780 nM
15,"CC(C)N1CC(NC(=O)c2cc(C3CC3)ccn2)C1 [compound 961, 4-cyclopropyl-N-(1-isopropylazetidin-3-yl)picolinamide]",1300 nM
16,"CC(c1cc(Cl)ccc1Cl)N1CC(NC(=O)c2cc(C3CC3)ccn2)C1 (stereo not shown) [compound 962, 4-cyclopropyl-N-(1-(1-(2,5-dichlorophenyl)ethyl)azetidin-3-yl)picolinamide]",480 nM
17,"CNC(=O)c1ccc(COc2ccc(C(C)N3CC(NC(=O)c4cn(C5CC5)nn4)C3)cc2)cc1 (stereo not shown) [compound 963, 1-cyclopropyl-N-(1-(1-(4-((4-(methylcarbamoyl)benzyl)oxy)phenyl)ethyl)azetidin-3-yl)-1H-1,2,3-triazole-4-carboxamide]",970 nM
18,"CC(c1cccc(OCCO)c1Cl)N1CC(NC(=O)c2cc(C3CC3)ccn2)C1 (stereo not shown) [compound 964, N-(1-(1-(2-chloro-3-(2-hydroxyemoxy)phenyl)ethyl)azetidin-3-yl)-4-cyclopropylpicolinamide]",10500 nM
19,"COc1cccc(C(C)N2CC(NC(=O)c3cc(C4CC4)cnn3)C2)c1Cl (stereo not shown) [compound 965, N-(1-(1-(2-chloro-3-memoxyphenyl)ethyl)azetidin-3-yl)-5-cyclopropylpyridazine-3-carboxamide]",72 nM

row,Structure (SMILES),IC50
1,"O=C(NC1CN(Cc2cnn(Cc3ccccc3)c2)C1)c1cc(C2CC2)ccn1 [compound 966, N-(1-((1-benzyl-1H-pyrazol-4-yl)methyl)azetidin-3-yl)-4-cyclopropylpicolinamide]",13 nM
2,"O=C(NC1CN(Cc2ccc(OCc3ccccc3)cc2)C1)c1cc(C2CC2)ccn1 [compound 967, N-(1-(4-(benzyloxy)benzyl)azetidin-3-yl)-4-cyclopropylpicolinamide]",150 nM
3,"CC(c1ccc(OCC(F)(F)F)cc1)N1CC(NC(=O)c2cn(C3CC3)nn2)C1 (stereo not shown) [compound 968, 1-cyclopropyl-N-(1-(1-(4-(2,2,2-trifluoroethoxy)phenyl)ethyl)azetidin-3-yl)-1H-1,2,3-triazole-4-carboxamide]",1700 nM
4,"CC(c1cc(Cl)ccc1OC(F)F)N1CC(NC(=O)c2cn(C3CC3)nn2)C1 (stereo not shown) [compound 970, N-(1-(1-(5-chloro-2-(difluoromethoxy)phenyl)ethyl)azetidin-3-yl)-1-cyclopropyl-1H-1,2,3-triazole-4-carboxamide]",5100 nM
5,"Cc1ccc(COc2ccc(C(C)N3CC(NC(=O)c4cn(C5CC5)nn4)C3)cc2)cc1 (stereo not shown) [compound 971, 1-cyclopropyl-N-(1-(1-(4-((4-methylbenzyl)oxy)phenyl)ethyl)azetidin-3-yl)-1H-1,2,3-triazole-4-carboxamide]",88 nM
6,"O=C(NC1CN(Cc2ccc(OCc3cccnc3)cc2)C1)c1cn(C2CC2)nn1 [compound 972, 1-cyclopropyl-N-(1-(4-(pyridin-3-ylmemoxy)benzyl)azetidin-3-yl)-1H-1,2,3-triazole-4-carboxamide]",1300 nM
7,"CC(c1cccc(OCC(O)CO)c1Cl)N1CC(NC(=O)c2cn(C3CC3)nn2)C1 (stereo not shown) [compound 973, N-(1-(1-(2-chloro-3-(2,3-dihydroxypropoxy)phenyl)ethyl)azetidin-3-yl)-1-cyclopropyl-1H-1,2,3-triazole-4-carboxamide]",> 50000 nM
8,"CC(c1ccc(COc2ccccc2)cc1)N1CC(NC(=O)c2cn(C3CC3)nn2)C1 (stereo not shown) [compound 974, 1-cyclopropyl-N-(1-(1-(4-(phenoxymethyl)phenyl)ethyl)azetidin-3-yl)-1H-1,2,3-triazole-4-carboxamide]",870 nM
9,"CNCCOc1cccc(C(C)N2CC(NC(=O)c3cn(C4CC4)nn3)C2)c1Cl (stereo not shown) [compound 975, N-(1-(1-(2-chloro-3-(2-(methylamino)ethoxy)phenyl)ethyl)azetidin-3-yl)-1-cyclopropyl-1H-1,2,3-triazole-4-carboxamide]",5400 nM
10,"CC(c1cc(Cl)ccc1C(F)(F)F)N1CC(NC(=O)c2cn(C3CC3)nn2)C1 (stereo not shown) [compound 976, N-(1-(1-(5-chloro-2-(trifluoromethyl)phenyl)ethyl)azetidin-3-yl)-1-cyclopropyl-1H-1,2,3-triazole-4-carboxamide]",1800 nM
11,"CC(c1cccc(OCCN(C)C)c1Cl)N1CC(NC(=O)c2cn(C3CC3)nn2)C1 (stereo not shown) [compound 977, N-(1-(1-(2-chloro-3-(2-(dimethylamino)ethoxy)phenyl)ethyl)azetidin-3-yl)-1-cyclopropyl-1H-1,2,3-triazole-4-carboxamide]",7500 nM
12,"CC(O)COc1cccc(C(C)N2CC(NC(=O)c3cn(C4CC4)nn3)C2)c1Cl (stereo not shown) [compound 978, N-(1-(1-(2-chloro-3-(2-hydroxypropoxy)phenyl)ethyl)azetidin-3-yl)-1-cyclopropyl-1H-1,2,3-triazole-4-carboxamide]",1100 nM
13,"CC(NC(=O)c1cn(C2CC2)nn1)C1CCCCN1C (stereo not shown) [compound 979, 1-cyclopropyl-N-(1-(1-methylpiperidin-2-yl)ethyl)-1H-1,2,3-triazole-4-carboxamide]",> 50000 nM
14,"CC(C)(c1ccc(OCc2ccccc2)cc1)N1CC(NC(=O)c2cn(C3CC3)nn2)C1 [compound 980, N-(1-(2-(4-(benzyloxy)phenyl)propan-2-yl)azetidin-3-yl)-1-cyclopropyl-1H-1,2,3-triazole-4-carboxamide]",990 nM
15,"CC(NC(=O)c1cc(C2CC2)cnn1)C1CCCCN1C (stereo not shown) [compound 981, 5-cyclopropyl-N-(1-(1-methylpiperidin-2-yl)ethyl)pyridazine-3-carboxamide]",> 50000 nM
16,"COc1cccc(Cn2cc(CN3CC(NC(=O)c4cn(C5CC5)nn4)C3)cn2)c1 [compound 982, 1-cyclopropyl-N-(1-((1-(3-methoxybenzyl)-1H-pyrazol-4-yl)methyl)azetidin-3-yl)-1H-1,2,3-triazole-4-carboxamide]",169 nM
17,"O=C(NC1CN(Cc2ccc(C(O)Cc3ccccc3)cc2)C1)c1cn(C2CC2)nn1 (stereo not shown) [compound 983, 1-cyclopropyl-N-(1-(4-(1-hydroxy-2-phenylethyl)benzyl)azetidin-3-yl)-1H-1,2,3-triazole-4-carboxamide]",1390 nM
18,"O=C(NC1CN(Cc2cnn(Cc3ccc(Cl)cc3)c2)C1)c1cn(C2CC2)nn1 [compound 985, N-(1-((1-(4-Chlorobenzyl)-1H-pyrazol-4-yl)methyl)azetidin-3-yl)-1-cyclopropyl-1H-1,2,3-triazole-4-carboxamide]",3.9 nM
